Numbers after ± are expanded uncertainties.
Assay: Boiling temperature at pressure P
Conditions: 101.3 kPa; Liquid; Ebulliometric method (Recirculating still)

Row | Boiling temperature at pressure P | SMILES
1 | 135.04 ± 0.71 °C | CCOCCO [2-ethoxyethan-1-ol]
2 | 68.62 ± 0.71 °C | CC(C)OC(C)C [diisopropyl ether]
3 | 82.12 ± 0.71 °C | CC(C)O [propan-2-ol]

Row | SMILES | Boiling temperature at pressure P
4 | CCCCOC(C)=O [butyl ethanoate] | 126.11 ± 0.71 °C
